The values below come from US20240181007A1, “COMPOSITIONS AND METHODS FOR TREATING PULMONARY HYPERTENSION” (Acceleron Pharma Inc., priority 2021, published 2024).

In assay [1] the test system is TAC-PH mice. Kind of assay: Transverse aortic constriction (TAC) induced PH mouse model, C57BL/6 (Example 9). The format is in vivo. Particulars: 10 mg/kg s.c. twice weekly for 4 weeks from day 14 after TAC, day 42, relative to TAC-PH/PBS. An excerpt: The effects of an ActRIIA-mFc fusion polypeptide (SEQ ID NO: 56) was examined in a mouse model of left ventricular systolic dysfunction (also referred to as HErEF) of pulmonary hypertension (PH). In this model, C57BL/6 mice underwent transverse aortic constriction (TAC) to induce left heart failure, and right heart and pulmonary remodeling. See, e.g., Xiong P Y, et al. Hypertension 2018, 71(1):34-55 and Chen Y, et al. Hypertension 2012, 59(6):1170-1178.
Twenty-six C57/B6 male mice (10 wks old) underwent TAC surgery and ten age-matched animals underwent a mock surgical procedure (Sham) at day 0. Two weeks after the surgery, TAC-PH mice were randomized into two groups. i) fourteen mice were injected subcutaneously with vehicle control (phosphate buffered saline (PBS)), twice weekly for 4 weeks starting from day 14 after surgery, “TAC-PH/PBS”: and a ii) twelve mice were injected subcutaneously with ActRIIA-mFc at a dose of 10 mg/kg twice weekly for 4 weeks starting from day 14 after TAC surgery, “TAC-PH/ActRII-mFc”. At the end of the study, echocardiography and pressure-volume catheter were performed to measure left and right ventricular remodeling and functional changes before animals were euthanized for heart and lung collection. Hearts and lungs of each mouse were weighed, fixed in 10% formalin, embedded in paraffin, and sectioned for Masson's trichrome stain to assess fibrosis.
(§1) Prior to euthanasia, in vivo cardiac function was assessed by transthoracic echocardiography (Acuson P300, 18 MHz transducer; Siemens) in conscious mice. From left ventricle (LV) short axis view, M-mode echocardiogram was acquired to measure left ventricle end diastolic diameter (LVEDD), and left ventricle end systolic diameter (LVESD). Fractional shortening (FS) was calculated from the end-diastolic diameter (EDD) and end-systolic diameter (ESD) using the following equation: FS=100%×[(EDD−ESD)/EDD]. Early diastolic filling peak velocity (E), early diastolic mitral annular velocity (E′), and isovolumetric relaxation time (IVRT) were measured from the medial or septal wall at the mitral valve level from tissue Doppler image. LV diastolic function was assessed by measuring the E/E′ ratio and IVRT. Three to five beats were averaged for each mouse measurement. Tricuspid annular plane systolic excursion (TAPSE), a parameter of global right ventricular function, was also measured.
On day 42, mice were anesthetized by an intraperitoneal injection of ketamine/xylazine (100/5 mg/kg) to evaluate left and right ventricular function by Millar pressure-volume conductance catheter. The respiration was supported by a small animal ventilator. Thoracotomy was made through 4-5 intercostal space, and the heart was exposed. A pressure-volume catheter (1.0-Fr, PVR-1035, Millar Instruments, Houston, TX, USA) was inserted into the left ventricle and right ventricle from the apex. Ventricular pressure and volume were calculated with LabChart 7 software. Stroke work, ejection fraction, maximum and minimum rate of pressure development (+dp/dtm, −dp/dtm) were derived.

Assay [2] has as its system TAC-PH mice. Kind of assay: Transverse aortic constriction (TAC) induced PH mouse model, BALB/cJ (Example 12). Particulars: day 42, relative to TAC PBS. The format is in vivo.
Text: The effects of an ActRIIA-mFc fusion polypeptide (SEQ ID NO: 56) was examined in a mouse model of left ventricular systolic dysfunction (also referred to as HErEF) of pulmonary hypertension (PH) and valvular heart disease. In this model, BALB/cJ mice underwent transverse aortic constriction (TAC) to induce left heart failure, and right heart and pulmonary remodeling. See, e.g., Xiong P Y. et al. Hypertension 2018, 71(1):34-55 and Chen Y. et al. Hypertension 2012, 59(6):1170-1178.
Forty-four BALB/cJ male mice (10 wks old) underwent TAC surgery and fourteen age-matched animals underwent a mock surgical procedure (Sham) at day 0. Two weeks after the surgery, TAC-PH mice were randomized into three groups. i) fourteen mice were injected subcutaneously with vehicle control (phosphate buffered saline (PBS)), twice weekly for 4 weeks starting from day 14 after surgery, “TAC PBS”; ii) fifteen mice were injected subcutaneously with ActRIIA-mFc at a dose of 3 mg/kg twice weekly for 4 weeks starting from day 14 after TAC surgery, “TAC ActRIIA-mFc 3 mpk”; and iii) fifteen mice were injected subcutaneously with ActRIIA-mFc at a dose of 10 mg/kg twice weekly for 4 weeks starting from day 14 after TAC surgery, “TAC ActRIIA-mFc 10 mpk.” At the end of the study, echocardiography and pressure-volume catheter were performed to measure left and right ventricular remodeling and functional changes before animals were euthanized for heart and lung collection. Hearts and lungs of each mouse were weighed, fixed in 10% formalin, embedded in paraffin, and sectioned for Masson's trichrome stain to assess fibrosis.
as §1, with “RV free wall thickness (RVFWT) was measured using M-mode in” for “Tricuspid annular plane systolic excursion (TAPSE),”, “modified parasternal long-axis view through the aortic valve. Pulmonary artery acceleration time (PAAT) was measured as the time from start to peak velocity” for “parameter”, “blood flow in the lumen of the main pulmonary artery distal to the pulmonary valve as obtained from the pulse-wave doppler recording.” for “global right ventricular function, was also measured.”
On day 42, mice were anesthetized by an intraperitoneal injection of ketamine/xylazine (100/5 mg/kg) to evaluate left and right ventricular function by Millar pressure-volume conductance catheter. The respiration was supported by a small animal ventilator.
Thoracotomy was made through 4-5 intercostal space, and the heart was exposed. A pressure-volume catheter (1.0-Fr, PVR-1035, Millar Instruments, Houston, TX, USA) was inserted into the left ventricle and right ventricle from the apex. Ventricular pressure and volume were calculated with LabChart 7 software. Ejection fraction was derived. Afterwards, animals were euthanized for heart and lung collection. Cardiac hypertrophy was measured by heart weight (HW) normalized by tibial length (TL). Left ventricle (LV), right ventricle (RV) and lung of each mouse were separated, fixed in 10% formalin, embedded in paraffin, and sectioned for Masson's trichrome stain to assess fibrosis. Serum and urine samples were collected at the end of the study.

As to “ActRIIA-mFc: ActRIIA-mFc fusion polypeptide (SEQ ID NO: 56); extracellular domain fused to murine IgG2a Fc domain with a linker”, the “cardiac hypertrophy, heart weight/body weight (HW/BW)” value in assay [1] (FIG. 15) is “significantly reduced cardiac hypertrophy”. In addition, the “fractional shortening (FS)” value in assay [1] (FIG. 16) is on record as “elevated FS”. Moreover, the LV ejection fraction entry in assay [1] (FIG. 17) is listed as “restored LV ejection fraction”; in assay [2] (3 mpk or 10 mpk s.c. twice weekly for 4 weeks from day 14 after TAC, FIG. 45), “restored LV ejection fraction”. Also, the “E/E′ ratio” value in assay [1] (FIG. 18) is given as “reduced E/E′ ratio”; in assay [2] (3 mpk s.c. twice weekly for 4 weeks from day 14 after TAC, FIG. 47) it was “reduced E/E′ ratio at 3 mpk”. The “isovolumetric relaxation time (IVRT)” value in assay [1] (FIG. 19) is recorded as “reduced IVRT”. Besides, the “right ventricle free wall thickness (RVFWT)” value in assay [1] (FIG. 20) was “significantly reduced elevated RVFWT”. Moreover, the “tricuspid annular plane systolic excursion (TAPSE)” value in assay [1] (FIG. 21) is listed as “increased reduced TAPSE”. Moreover, the RV stroke work entry in assay [1] (FIG. 22) is “reduced elevated RV stroke work”. Also, the “minimum rate of pressure development in RV (−dp/dTmin)” value in assay [1] (FIG. 23) is “decreased increased RV−dp/dTmin”. Also, the “lung weight (LW/TL)” value in assay [1] (FIG. 24) is reported as “decreased lung weight”. Besides, the lung fibrosis entry was “significantly reduced lung fibrosis” in assay [1] (FIG. 25) and “significantly reduced lung fibrosis” in assay [2] (3 mpk or 10 mpk s.c. twice weekly for 4 weeks from day 14 after TAC, FIG. 54). The “cardiac hypertrophy, heart weight/tibia length (HW/TL)” value in assay [2] (3 mpk or 10 mpk s.c. twice weekly for 4 weeks from day 14 after TAC, FIG. 46) was “significantly reduced cardiac hypertrophy”. The IVRT result in assay [2] (3 mpk or 10 mpk s.c. twice weekly for 4 weeks from day 14 after TAC, FIG. 48) was “reduced IVRT”. In assay [2] (3 mpk or 10 mpk s.c. twice weekly for 4 weeks from day 14 after TAC, FIG. 49), the RVSP result was “reduced RVSP”. The RVFWT result in assay [2] (3 mpk or 10 mpk s.c. twice weekly for 4 weeks from day 14 after TAC, FIG. 50) was “significantly reduced elevated RVFWT”. Moreover, the PAAT entry in assay [2] (3 mpk or 10 mpk s.c. twice weekly for 4 weeks from day 14 after TAC, FIG. 51) is on record as “increased PAAT”. In assay [2] (3 mpk or 10 mpk s.c. twice weekly for 4 weeks from day 14 after TAC, FIG. 52), the LV fibrosis result was “significantly reduced”. In addition, in assay [2] (3 mpk or 10 mpk s.c. twice weekly for 4 weeks from day 14 after TAC, FIG. 53), the RV fibrosis result is listed as “significantly reduced”.
